“Also recorded” adds a separate entry of the source. Where two headings read alike, the source gives them in different places.
Experiments:
[1] = nitroimidazole in VCY17, nitrofuran in VCY15; cited from earlier work
[2] = system: D423 (ENO1-deleted) glioma cells; experiment: Cell proliferation assay (crystal violet) in ENO1-deleted glioma cells; format: cell-based; details: for IC50: Glioma cell; for selectivity for ENO1-deleted cells: versus ENO1-rescued (D423 ENO1) and ENO1-intact (LN319) glioma cells
Protocol: Cell culture experiments. Cell culture experiments were conducted using the D423-MG cell line. 1p36 homozygous deletion in D423 includes the genes from CAMTAJ to SLC25A33; this includes ENO1. Isogenic ENO1 ectopically rescued lines were described previously (pCMV ENO1 5X) (Muller et al., 2012, which is incorporated by reference herein). An ENO1-intact cell line (LN319) was used as a control for sensitivity to Enolase inhibitors. Cells were routinely cultured in Dulbecco's modified Eagle's medium supplemented with 10% fetal bovine serum.
Cell proliferation assay. Cell Proliferation was determined by crystal violet staining, as previously described (Leonard et al., 2016 and Satani et al., 2016). The cell lines used were D423 (ENO1-deleted), D423 ENO1 (overexpressing ENO1) and LN319 (control). Glioma cells were seeded in 96-well plates and treated with varying concentrations of the inhibitors described above for 7 days. Cells were then washed with PBS, fixed with 10% formalin and stained with 0.05% crystal violet. Washed and dried plates were dye-extracted using 10% acetic acid, and absorbance was measured at 595 nm using Omegastar Plate Reader (BMG Labtech). To test the efficacy of the synthesized under hypoxic conditions, 1×10^4 cells were plated in 96-well plates, treated with VCY13, VCY15, VCY16, or VCY17 and incubated for 3 days in a hypoxia station (Don Whitley Scientific, Shipley, UK) set at 1% O2 and 5% CO2. Crystal violet staining was then performed as described above.
Additional Biological Data. Pro-drug inhibitor structures and corresponding IC50 values against ENO1-deleted cells are shown below in Table 2. The name and corresponding structures of all synthesized inhibitors are given in left and middle columns of each table. Pro-drug moieties in blue represent a second pro-drug leave group while those in red represent a first pro-drug leave group. Some inhibitors also contain an acetyl-protected hydroxamate, which is also a biologically labile moiety. ENO1-deleted (D423), ENO1-isogenically rescued (D423 ENO1), and ENO1-WT (LN319) cells were treated with either pro-drug inhibitor for 5 days at 21% O2, unless otherwise specified. […] IC50,D423 values at 21% O2 are given in the right columns of each table. Experiments conducted at 1% O2 (hypoxic) or 70% O2 (hyperoxic) conditions are noted, where appropriate.

[3] = Serum containing cell culture media stability assay; format: in vitro ADME
Protocol: Serum containing Cell Culture Media stability assay. POMHEX and VCY17 (1 mM) were added to DMEM-containing 10% Fetal Bovine Serum cell culture media in an NMR tube with 10% D2O for signal lock) and incubated at 37° C. ^31P NMR measurements (^31P CPD, 1000 transients) were conducted every 24 hours, for 4 days.

[4] = system: D423 (ENO1-deleted) glioma cells; experiment: Cell proliferation assay (crystal violet) in ENO1-deleted glioma cells; format: cell-based
[5] = Human plasma stability assay (31P NMR); format: in vitro ADME
Protocol: VCY17 (left) and POMHEX (right) were prepared at 1.5 mM and added to human plasma in an NMR tube with 10% D2O for signal lock. […] As expected, emergence of the second peak after 1 h is due to hydrolysis of the acetyl-protected hydroxamate; the nitroimidazole moiety remains attached (mono-ester phosphonates always show ^31P-chemical shifts <20 ppm); intact phosphoramidate mixed ester was verified by ^31P-^1H HSQC showing resonance with protons at ~5 ppm (—CH2—O—P) and 4 ppm (—CH2—NH—P). Note that VCY17 and de-acetylated VCY17 can come out as doublets: this is because two chiral centers (Phosphorus and C1) yield cis/trans diasteromers.
VCY13 (FIG. 20A) and VCY31 (FIG. 20B) are thioesterase-labile phosphonoamidates. ENO1-deleted (D423, red), ENO1-isogenically rescued (D423 ENO1, blue), and ENO1-WT (LN319, grey) cells were treated with either VCY13 or VCY31 for 5 days. […] (FIG. 20B) VCY31 is a structurally similar pro-drug that uses 2-picolylamine, rather than benzylamine, as a second pro-drug leave group. […] 4 mM VCY31 was dissolved in 80% human plasma, 20% D2O and monitored by ^31P NMR (121 MHz) for 15 hours. Intact VCY31 has a ^31P NMR shift of 33 ppm. Hydrolysis of the thioester begins to occur after 2 hours, as indicated by the emergence of a peak at ~16 ppm.
Human plasma stability assay. POMHEX and VCY17 (1.5 mM) were added to human plasma (Sigma #P9523) in an NMR tube with 10% D2O for signal lock. ^31P NMR measurements (31P CPD, 1000 transients) were conducted every 30 minutes on the first day and every 24 hours, for 4 days afterwards.

[6] = format: in vitro ADME
Excerpt: Also described herein are synthesized phosphonate pro-drugs that forgo the use of phosphoramidases or esterases to release the active pharmacophore. These moieties include the attachment of 2-(hydroxymethyl)phenol (VCY27) and 3-(hexadecyloxy)propan-1-ol (ESB7). […] Cyclosal pro-drugs have previously been described for protecting phosphate-containing antiviral nucleotides; however, it was herein discovered that its delivery efficacy can be enhanced under high O2 conditions—a previously unknown finding. Separately, the 3-(hexadecyloxy)propan-1-ol is a pro-drug that has been applied to the antiviral nucleotide Brincidofovir (CMX-001). Appending the long chain ester to HEX may facilitate the pro-drug moiety to be used for the treatment of malignant glioma.

NCI-60 cell lines = experiment: NCI-60 screening; format: cell-based; details: NSC: D-813202
Excerpt: Without wishing to be bound by any particular theory, phosphoamidates may be removed across broad cell types. Whilst the IDX184 utilized benzylamine in its pro-drug structure, this drug was specifically directed at hepatocytes, and no evidence was forthcoming that it would be a pro-drug moiety applicable for glioblastoma or other cancer drug delivery. […] For example, FLM37 has been submitted to the NCI-60 screening (NSC: D-813202). All cancer cell lines were affected at concentrations of FLM37 above 10 μM, some with as little as 1 μM. […] More generally, this means that the amine as a second leaving group is applicable as a universal second leaving group for the delivery of phosphonate/phosphate containing bioactive compounds.

[7] = system: xenografted tumor (D423 ENO1-homozygously deleted cell line); experiment: Anti-tumor efficacy in xenografted tumor model; format: in vivo, Foxn1 nude mice
Protocol: Two HEX pro-drugs from different classes were tested for anti-tumor efficacy in xenografted tumor (D423 ENO1-homozygously deleted cell line) pre-clinical models (the standard immunodeficient Foxn1 nude mice). Tumor volumes (y-axis) were measured at the indicated dates (x-axis). Without treatment, tumors grow inexorably. […] This is notable because of the high esterase activity in mouse plasma, rodents are a sub-optimal model for pre-clinical efficacy evaluation of esterase-labile pro-drugs.

[8] = pH degradation assay (31P NMR in phosphate buffered D2O); format: physicochemical; details: pH 3, 7, and 8.82, phosphate buffered D2O, NMR over 3 days
Protocol: (§1) To assure that benzylamine-protected HEX (FLM38) was not inhibiting Enolase directly, an in vitro spectrophotometric assay was performed to examine Enolase catalytic activity through conversion of 2-phoshpoglycerate (2-PG) to phosphoenolpyruvate (PEP). Without wishing to be bound by theory, if FLM38 were to inhibit Enolase directly, a dose-dependent decrease in absorbance at 240 nm would be observed, corresponding to decreased production of PEP. […] The possibility that the benzylamine moiety could undergo non-enzymatic hydrolysis in aqueous conditions was also examined. This study was performed by measuring the pH-dependence of compound degradation in phosphate buffered D2O via NMR over 3 days.
pH degradation assay. Solutions of 50 mM phosphate buffered D2O were prepared at pH 3, 7, and 8.82. For each condition, FLM38 (5 mg, […]) was dissolved in […] of phosphate buffered D2O and placed in NMR tubes. Hydrolysis was monitored by ^31P NMR and was evidenced by the degradation of the compound peak at ~20 ppm and the emergence of the hydrolyzed product at ~18 ppm. Scans were collected every 12 h on a Bruker 500 MHz NMR.

Enolase = Enolase enzymatic activity assay (spectrophotometric, 2-PG to PEP, 240 nm); format: biochemical, human; details: serial dilutions beginning at 100 μM, native lysates
Protocol: as §1
Enolase enzymatic activity assay. The enzyme activity assay was performed according to a previously described procedure (Muller et al., 2012, which is incorporated by reference herein). […]
In the first, the lysates were treated with the serial dilutions of FLM38 (starting at 100 μM) and the reaction initiated by adding 2.5 mM 2-PG and optical density (OD) was measured at 240 nm using Omegastar Plate reader (BMG Labtech) over the course of 3 h.
In the second experiment, the lysates were pre-incubated in 96-well plates with serial dilutions of FLM38 (starting at 100 µM) at 37° C. for 20 h. The reaction was initiated by adding 2.5 mM 2-PG and OD was measured at 240 nm. […]

[9] = 120 h, ENO1-deleted (D423) cells, 5 days, 21% O2, read-out: IC50,D423
[10] = 120 h, 21% O2, 5 days where stated, read-out: IC50 against D423 (ENO1-deleted) cells
[11] = 4 mM in 80% human plasma, 20% D2O, 31P NMR

CC(=O)ON1CCCC(P(=O)(NCc2ccccc2)OCc2cnc([N+](=O)[O-])n2C)C1=O (stereo not shown) [VCY17, 3-((benzylamino)((1-methyl-2-nitro-1H-imidazol-5-yl)methoxy)phosphoryl)-2-oxopiperidin-1-yl acetate]
redox potential of the nitroheterocycle [1]: −390 mV
IC50 [2, 9]: 12700 nM
IC50 ([2]; D423 cells, 1% O2 (hypoxic), read-out: IC50,D423 at 1% O2): 975 nM
difference in bioactivation from 21% to 1% O2 ([2]; taking into account HIF-1α/hypoxia-driven increase in ENO2 expression): ≤ 50 fold
stable in serum-containing culture media [3]: more than 48 hours
potency increase under 1% O2 ([4]; 4 days, 1% O2 versus 21% O2, ENO1-deleted glioma cells): greater than 15 fold
stable in ex-vivo human plasma for [5]: more than 48 hours
stability in ex-vivo human plasma over the course of ([5]; 1.5 mM, human plasma with 10% D2O, 31P NMR): ≥ 24 h

CCCCCCCCCCCCCCCCOCCCOP(=O)(O)C1CCCN(O)C1=O (stereo not shown) [ESB7, 3-(hexadecyloxy)propyl hydrogen (1-hydroxy-2-oxopiperidin-3-yl)phosphonate]
IC50 [2, 9]: 202 nM
selectivity for ENO1-deleted cells [2]: selective killing against ENO1-deleted cells
stability under various pH conditions and in biological fluids [6]: robust stability

CC(C)(C)C(=O)OCOP(=O)(NCc1ccccc1)C1CCCN(O)C1=O (stereo not shown) [FLM37]
IC50 [2, 10]: 244 nM
IC50 [2, 9]: 150 nM
selectivity for ENO1-deleted cells [2]: selective killing towards D423 cells; also recorded: selective for ENO1-deleted cells
IC50 ([4]; Glioma cell, 144 h, 6 days, starting concentration 1 μM, crystal violet (FIG. 7), read-out: IC50 towards D423 cells): 63 nM
concentration at which some cancer cell lines were affected (NCI-60 cell lines): ≥ 1 µM
concentrations at which all cancer cell lines were affected (NCI-60 cell lines): above 10 μM

CC(=O)ON1CCCC(P(=O)(NCc2ccccn2)OCCSC(=O)C(C)(C)C)C1=O (stereo not shown) [VCY31, 2-oxo-3-((2-(pivaloylthio)ethoxy)((pyridin-2-ylmethyl)amino)phosphoryl) piperidin-1-yl acetate]
tumor volume response ([7]; 90 mg/kg/day IP): suppressed tumor growth
IC50 [2, 10]: 59 nM
IC50 [2, 9]: 59 nM
selectivity for ENO1-deleted cells [2]: dose-dependent selectivity for ENO1-deleted cells
hydrolysis of the thioester begins to occur after [5, 11]: 2 h
time without full hydrolysis [5, 11]: > 15 h

O=C1C(P(=O)(O)NCc2ccccc2)CCCN1O (stereo not shown) [FLM38, N-benzyl-P-(1-hydroxy-2-oxopiperidin-3-yl)phosphonamidic acid]
stability to non-enzymatic hydrolysis [8]: remained intact
direct inhibition of Enolase (dose-dependent decrease in absorbance at 240 nm) (Enolase): does not inhibit Enolase directly

O=C1C([P@]2(=O)OCc3ccccc3O2)CCCN1O (stereo partly drawn) [VCY27, 1-hydroxy-3-((S)-2-oxido-4H-benzo[d][1,3,2]dioxaphosphinin-2-yl)piperidin-2-one]
tumor volume response ([7]; 1 IP and 1 SC injection, at 35 mg/kg/day each): immediate abrogation of tumor growth and eventual tumor regression
IC50 [2, 10]: ~500 nM
IC50 [2, 9]: 500 nM
IC50 ([2]; D423 cells, 70% O2 (hyperoxic), read-out: IC50,D423 at 70% O2): 15 nM
selectivity for ENO1-deleted cells [2]: selective killing against ENO1-deleted cells
stability under various pH conditions and in biological fluids [6]: robust stability
